Entries after “also recorded” stand apart in the source; their conditions may differ. Where two headings read alike, the source gives them in different places.
Tests used:
NF-κB = NF-κB activation / DNA-binding activity by EMSA in stimulated HeLa cells; assay type: cell-based, human; details: for effect on NF-κB activation: HeLa cells stimulated with TNFα (PGA1: IL-1 or TNFα); for IC50: Homo sapiens, HeLa cells
Description: (§1) Cells used in the experiments described herein were cultured in either RPMI 1640 (Jurkat cells) or DMEM (HeLa and COS cells), supplemented with 10% FBS and antibiotics. Cells were stimulated with either 25 ng/ml TPA, 20 ng/ml recombinant TNFα, or 10 ng/ml interleukin 1β (Sigma). PGA1, 15dPGJ2, T×B2, LTB4, AA and other PGs (Cayman) dissolved in ethanol were used as well, as known in the art (See e.g., Rossi et al., 94:746-750 [1997]). Controls received equal amounts of ethanol. Transfections were performed using Lipofectamine Plus (GIBCO) for HeLa and COS cells and DEAE-dextran (Sigma) for Jurkat cells. Xpress-tagged NIK, Xpress-tagged MEKK1, HA-tagged IKKα, and HA-tagged IKKβ were also used (See e.g., Zandi et al., Science 281:1360-1363 [1998]; and Delhase et al., Science 284:309-313 [1999]). COX2 and cPLA2 expression vectors were obtained from Dr. L. Feng (See also, Hirose et al., J. Am. Soc. Nephrol., 9:408-416 [1998]). PGD synthase was cloned from HT29 colon carcinoma cell line cDNA by PCR and subcloned into a pCDNA3 vector. Cells were lysed in buffer B (50 mM Tris-HCl, pH 7.5, 400 mM NaCl, 1 mM EDTA, 1 mM EGTA, 1% Triton, 0.5% NP-40, 10% glycerol, and supplemented with 20 mM β-glycerophosphate, 10 mM PNPP, […] 1 mM PMSF, 20 μg/ml aprotinin, 2.5 μg/ml leupeptin, 8.3 μg/ml bestatin, 1.7 μg/ml pepstatin, and 2 mM DTT).
Aliquots of total extracts (15 μg protein) in buffer B were incubated with a ^32P-labeled κB DNA, followed by analysis of DNA-binding activities by EMSA on 4% PAGE gels, as known in the art (See, Rossi et al., supra). Specificity of protein-DNA complexes was verified by supershift with polyclonal antibodies specific for p65 (Rel A).

IKK [1] = target: T1, IKK (Homo sapiens, UniProt O14920+O15111); assay: In vitro kinase assay of IKK immunoprecipitated from TNFα-stimulated HeLa cells; assay type: biochemical; set-up: Endogenous IKK was immunoprecipitated from TNFα-stimulated HeLa cells; endogenous in cells; host or cells: HeLa; details: for IC50: IKK immunoprecipitated from TNFα-stimulated HeLa cells
Description: (§2) Cell lysates were incubated with anti-IKKα (Pharmingen), anti-HA (12CA5; Pharmingen), anti-JNK1 (333.8; Pharmingen), or anti-p38 (New England Biolabs) for 2 hours. Then, 15 μl protein A-Sepharose (Sigma) were added and the mixture was allowed to incubate for 1 hour. After extensive washing, kinase assays were performed as known in the art (See e.g., DiDonato et al., Nature 388:548-554 [1997]). Endogenous IKK, HA-tagged IKKα, endogenous JNK1, and p38 activities were determined with GST-1κBα(1-54), GST-c-Jun(1-79), and GST-ATF2 as substrates.
Endogenous IKK was immunoprecipitated from TNFα-stimulated HeLa cells and the kinase activity determined in the presence of different concentrations of PGA1 (the results of which are shown in FIG. 2B) or 15dPGJ2 (the results of which are shown in FIG. 2C).
(§3) In this Example, experiments to determined the effects of arachidonic acid and its metabolites on IKK activity in vivo and in vitro are described. HeLa cells were treated with 50 μM AA, PGA1, PGB2, PGD2, PGE1, PGE2, PGF1α, or thromboxane B2 (T×B2), 1 μM LTB4, or 5 μM 15dPGJ2, for 2 hours in RPMI containing 10% FCS, and stimulated with TNFα for 10 minutes. Cell lysates were then assayed for endogenous IKK activity and recovery. In this FIGURE, “control” indicates unstimulated cells, and “-” indicates treatment with diluent alone. In addition, IKK was immunoprecipitated from TNFα-stimulated HeLA cells and incubated in vitro with 100 μM AA, PGA1, PGB2, PGD2, PGE1, PGE2, PGF1α, or T×B2, 2 μM LTB4 or 10 μM 15dPGJ2, followed by kinase assay and immunoblot analysis. In this FIGURE, “control” indicates to unstimulated cells, and “-”indicates 1% ethanol.
Many protein kinase inhibitors compete with binding of ATP, but preincubation in the presence of increasing concentrations of ATP had no effect on inhibition of IKKβ by 15dPGJ2, as indicated in FIG. 6A. […] The pellets were rinsed and kinase activity was measured.

Oct1 = target: T2, Oct1 (Homo sapiens, UniProt P14859); assay: Oct1 DNA binding activity; assay type: cell-based
T2 construct: endogenous in cells; host or cells: Jurkat (PGA1); cells of the 15dPGJ2 experiment not clearly stated
T2 sequence (P14859 1-743): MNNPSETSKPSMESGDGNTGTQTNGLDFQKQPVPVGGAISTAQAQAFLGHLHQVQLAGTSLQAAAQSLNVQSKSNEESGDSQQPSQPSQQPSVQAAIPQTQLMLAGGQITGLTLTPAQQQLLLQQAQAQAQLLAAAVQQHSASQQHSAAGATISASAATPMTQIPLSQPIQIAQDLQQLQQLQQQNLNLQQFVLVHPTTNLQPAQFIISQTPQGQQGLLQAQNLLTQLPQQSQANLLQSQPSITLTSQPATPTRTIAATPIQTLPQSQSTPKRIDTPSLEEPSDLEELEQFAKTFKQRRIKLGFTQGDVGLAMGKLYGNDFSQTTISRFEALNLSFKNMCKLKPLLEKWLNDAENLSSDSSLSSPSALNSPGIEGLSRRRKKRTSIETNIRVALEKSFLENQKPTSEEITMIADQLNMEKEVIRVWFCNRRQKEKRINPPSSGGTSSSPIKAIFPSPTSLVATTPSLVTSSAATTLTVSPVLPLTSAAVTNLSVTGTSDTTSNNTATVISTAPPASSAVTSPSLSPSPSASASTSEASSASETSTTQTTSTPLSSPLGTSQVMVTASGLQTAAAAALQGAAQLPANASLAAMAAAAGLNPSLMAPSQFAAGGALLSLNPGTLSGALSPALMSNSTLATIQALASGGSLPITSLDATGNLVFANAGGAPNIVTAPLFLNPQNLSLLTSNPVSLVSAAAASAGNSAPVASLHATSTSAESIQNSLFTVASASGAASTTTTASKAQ

IKK [2] = target: T1, IKK; assay: Endogenous IKK activity (kinase assay) in treated, stimulated HeLa cells; assay type: cell-based; set-up: Endogenous IKK was immunoprecipitated from TNFα-stimulated HeLa cells; endogenous in cells; host or cells: HeLa; details: for effect on IKK activity: HeLa cells stimulated with TNFα (PGA1: IL-1 or TNFα)
Description: as §1, §2, §3

T1 sequence (O14920 whole entry): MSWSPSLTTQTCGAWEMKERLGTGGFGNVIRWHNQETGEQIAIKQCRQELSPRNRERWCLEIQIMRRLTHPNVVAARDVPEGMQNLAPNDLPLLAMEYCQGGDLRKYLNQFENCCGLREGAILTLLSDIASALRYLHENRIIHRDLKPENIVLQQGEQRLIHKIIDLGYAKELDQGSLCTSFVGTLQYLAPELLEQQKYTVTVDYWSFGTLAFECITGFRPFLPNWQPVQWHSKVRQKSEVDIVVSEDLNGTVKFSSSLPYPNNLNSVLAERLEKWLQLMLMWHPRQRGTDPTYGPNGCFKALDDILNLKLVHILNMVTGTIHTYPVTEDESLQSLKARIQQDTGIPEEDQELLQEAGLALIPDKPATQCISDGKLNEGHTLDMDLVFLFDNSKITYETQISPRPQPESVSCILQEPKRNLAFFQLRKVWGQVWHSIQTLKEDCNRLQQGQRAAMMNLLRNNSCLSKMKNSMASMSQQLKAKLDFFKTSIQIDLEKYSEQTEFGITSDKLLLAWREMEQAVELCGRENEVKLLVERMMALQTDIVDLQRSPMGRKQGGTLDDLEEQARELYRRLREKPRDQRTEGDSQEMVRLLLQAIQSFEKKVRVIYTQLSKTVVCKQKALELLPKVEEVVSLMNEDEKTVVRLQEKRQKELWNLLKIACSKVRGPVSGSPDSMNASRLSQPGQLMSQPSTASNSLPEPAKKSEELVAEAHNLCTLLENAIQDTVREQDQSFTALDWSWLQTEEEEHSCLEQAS
T1 sequence (O15111 whole entry): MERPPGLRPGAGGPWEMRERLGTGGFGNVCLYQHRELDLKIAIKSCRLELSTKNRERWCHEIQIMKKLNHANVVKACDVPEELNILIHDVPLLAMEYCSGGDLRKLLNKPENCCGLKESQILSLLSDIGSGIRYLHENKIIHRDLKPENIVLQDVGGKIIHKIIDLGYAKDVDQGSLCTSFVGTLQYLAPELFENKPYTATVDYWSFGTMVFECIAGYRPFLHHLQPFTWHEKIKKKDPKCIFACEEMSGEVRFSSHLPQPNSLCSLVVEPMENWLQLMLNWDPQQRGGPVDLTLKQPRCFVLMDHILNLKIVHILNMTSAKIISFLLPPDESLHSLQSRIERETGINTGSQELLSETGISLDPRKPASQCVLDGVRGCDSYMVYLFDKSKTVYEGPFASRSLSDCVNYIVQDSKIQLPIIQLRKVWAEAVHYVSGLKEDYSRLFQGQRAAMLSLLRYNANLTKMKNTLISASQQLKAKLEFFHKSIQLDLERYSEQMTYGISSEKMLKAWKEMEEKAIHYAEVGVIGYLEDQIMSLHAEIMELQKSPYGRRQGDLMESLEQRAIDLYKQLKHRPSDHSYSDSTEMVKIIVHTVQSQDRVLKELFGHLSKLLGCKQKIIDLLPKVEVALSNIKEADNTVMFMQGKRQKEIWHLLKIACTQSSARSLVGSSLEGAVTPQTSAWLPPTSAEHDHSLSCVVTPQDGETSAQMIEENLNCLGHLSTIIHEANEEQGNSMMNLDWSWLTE
T1 sequence (Q9Y6K9 whole entry partner): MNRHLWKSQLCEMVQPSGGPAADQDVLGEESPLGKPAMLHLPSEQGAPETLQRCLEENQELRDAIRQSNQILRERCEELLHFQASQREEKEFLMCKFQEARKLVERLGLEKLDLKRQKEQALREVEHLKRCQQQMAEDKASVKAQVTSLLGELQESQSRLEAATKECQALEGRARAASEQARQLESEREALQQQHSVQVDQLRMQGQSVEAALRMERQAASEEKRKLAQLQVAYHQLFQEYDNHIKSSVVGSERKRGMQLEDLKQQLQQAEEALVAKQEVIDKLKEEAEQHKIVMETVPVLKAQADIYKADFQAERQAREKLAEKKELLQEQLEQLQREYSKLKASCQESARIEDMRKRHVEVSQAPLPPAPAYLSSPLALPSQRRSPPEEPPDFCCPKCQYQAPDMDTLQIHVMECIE

IC50 (NF-κB; TNFα, read-out: IC50 for inhibition of NF-κB DNA binding activity) | IC50 (NF-κB; TNFα, read-out: IC50 for inhibition of NF-κB DNA-binding activity) | IC50 (IKK [1]) | effect on Oct1 DNA-binding activity (Oct1; 15dPGJ2, data not shown) | effect on IKK activity (IKK [2]) | IC50 (IKK [2]; HeLa cells, TNFα, read-out: half-maximal inhibition of IKK activity) | IC50 (NF-κB; read-out: IC50 towards NF-κB) | IC50 (NF-κB; read-out: half-maximal inhibition towards NF-κB) | SMILES | effect on NF-κB activation (NF-κB) | effect of pre-incubation with increasing ATP on inhibition (ATP competition) (IKK [1]; 15dPGJ2 0-30 μM with or without ATP, 4° C., 30 minutes) | effect on Oct1 DNA binding (Oct1; PGA1 (120 μM), FIG. 1A)
2.25 µM | 2.25 µM | 7.08 µM | did not inhibit | inhibited | 5.08 µM |  |  | CCCCC/C=C/C=C1/C(=O)C=C[C@@H]1C/C=C\CCCC(=O)O [15dPGJ2, 15-deoxy-Δ^12-14-PGJ2] | inhibited | had no effect; also recorded: not a competitive inhibitor of ATP binding | 
 |  | 79.8 µM |  | inhibited |  | 65 µM | 65 µM | CCCCC[C@H](O)/C=C/[C@H]1C=CC(=O)C1CCCCCCC(=O)O (some centres unmarked) [PGA1, prostaglandin A1] | prevented |  | did not inhibit; also recorded: No effects

Reference: US6649654B1, “Methods for identifying and using IKK inhibitors” (The Regents of the University of California, priority 1999, dated 2003)
